Results on 31 compounds are retold here after PMC4406325 (MedChemComm, 2014).

Test [1] concerns KB (nasopharyngeal carcinoma). Description: SRB cytotoxic activity assay, KB. The class given is cell-based, human. The note with it: 3 days in culture, average of three independent measurements.
The target of test [2] is CDK9/cyclin T1 (Homo sapiens, UniProt P50750). In words: CDK9/Cyclin T1 kinase assay. Format: biochemical. The note with it: among all compounds tested at molecular level.
For test [3], the system named is HIV-1 NL4-3. Description: Anti-HIV-1 assay. Format: cell-based. The note with it: HIV-1 NL4-3, MT4 cells.

CDK9/cyclin T1, sequence (P50750 whole entry): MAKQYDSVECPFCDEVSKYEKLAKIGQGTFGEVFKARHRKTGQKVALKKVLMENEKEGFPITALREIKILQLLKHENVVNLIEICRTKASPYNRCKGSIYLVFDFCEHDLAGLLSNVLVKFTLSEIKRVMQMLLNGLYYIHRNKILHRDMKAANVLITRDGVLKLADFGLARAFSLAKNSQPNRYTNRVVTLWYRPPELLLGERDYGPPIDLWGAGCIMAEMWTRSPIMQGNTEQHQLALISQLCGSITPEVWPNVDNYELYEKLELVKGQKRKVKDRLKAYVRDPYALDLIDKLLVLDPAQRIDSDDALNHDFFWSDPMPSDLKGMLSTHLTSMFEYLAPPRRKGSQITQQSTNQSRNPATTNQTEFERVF
CDK9/cyclin T1, sequence (O60563 whole entry partner): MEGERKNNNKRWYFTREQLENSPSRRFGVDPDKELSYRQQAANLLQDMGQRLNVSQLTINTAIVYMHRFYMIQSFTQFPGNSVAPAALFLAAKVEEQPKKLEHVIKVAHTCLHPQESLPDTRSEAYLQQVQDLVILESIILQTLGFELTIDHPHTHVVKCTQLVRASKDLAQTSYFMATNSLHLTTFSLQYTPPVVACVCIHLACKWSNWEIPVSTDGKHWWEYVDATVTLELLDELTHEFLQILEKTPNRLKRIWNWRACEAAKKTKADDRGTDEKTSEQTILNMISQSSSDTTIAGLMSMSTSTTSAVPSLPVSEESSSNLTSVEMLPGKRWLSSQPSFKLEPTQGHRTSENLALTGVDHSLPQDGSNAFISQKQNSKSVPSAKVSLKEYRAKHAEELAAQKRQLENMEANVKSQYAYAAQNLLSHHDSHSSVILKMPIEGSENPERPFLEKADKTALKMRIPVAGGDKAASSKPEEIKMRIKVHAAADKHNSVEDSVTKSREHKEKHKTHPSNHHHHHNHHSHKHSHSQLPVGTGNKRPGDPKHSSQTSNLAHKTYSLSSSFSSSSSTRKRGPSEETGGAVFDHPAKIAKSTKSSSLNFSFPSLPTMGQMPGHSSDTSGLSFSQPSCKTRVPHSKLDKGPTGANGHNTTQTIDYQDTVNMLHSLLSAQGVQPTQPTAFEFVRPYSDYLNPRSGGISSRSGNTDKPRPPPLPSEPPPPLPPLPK

Take `Fc1cnc(Nc2cccc(N3CCOCC3)c2)nc1Nc1cc(Cl)cc(Cl)c1` [Compound 6a]: the “GI50 KB” value in test [1] was found to be 14.80 ± 1.02 µM.
On the same count and under the same terms, then `Fc1cnc(Nc2cccc(N3CCOCC3)c2)nc1Nc1ccc(Cl)c(Cl)c1` [Compound 6b], with > 10 µM; and `Fc1ccc(Nc2nc(Nc3cccc(N4CCOCC4)c3)ncc2F)cc1` [Compound 6c], with > 10 µM.
With `Fc1cnc(Nc2cccc(N3CCOCC3)c2)nc1Nc1c(F)cccc1F` [Compound 6d], the “selectivity to CDK9 over CDK2 (in words)” value in test [2] is recorded as “moderate selectivity to CDK9 over CDK2”. For the same compound, in test [3], the “inhibition in anti-HIV-1 assay (in words)” value (“inhibition” below) is on record as “Appreciable inhibition”. Besides, the “GI50 KB” value in test [1] was > 10 µM.
As for `COc1ccc(N2CCOCC2)cc1Nc1ncc(F)c(Nc2ccc(F)cc2)n1` [Compound 6e], the “GI50 KB” value in test [1] was > 10 µM.
Still for that read-out and setting: then `COc1ccc(N2CCN(C)CC2)cc1Nc1ncc(F)c(Nc2ccc(F)cc2)n1` [Compound 6f], with 0.96 ± 0.21 µM; and `O=C(Nc1cccc(Nc2ncc(F)c(Nc3ccc(F)cc3)n2)c1)c1ccccc1` [Compound 9a], with > 10 µM; and `O=C(Nc1cccc(Nc2ncc(F)c(Nc3ccc(F)cc3)n2)c1)c1cccc([N+](=O)[O-])c1` [Compound 9b], with 15.10 ± 1.16 µM.
Same read-out and setting: next, `CN(C)c1ccc(C(=O)Nc2cccc(Nc3ncc(F)c(Nc4ccc(F)cc4)n3)c2)cc1` [Compound 9c]: > 10 µM.
Consider `O=C(Nc1cccc(Nc2ncc(F)c(Nc3ccc(F)cc3)n2)c1)c1ccncc1` [Compound 9d], for which the “selectivity to CDK9 over CDK2 (in words)” value in test [2] is on record as “moderate selectivity to CDK9 over CDK2”. In test [1], the “GI50 KB” value was determined as 5.28 ± 3.49 µM.
Take `O=C(Nc1cccc(Nc2ncc(F)c(Nc3ccc(F)cc3)n2)c1)c1cnccn1` [Compound 9e]: the “GI50 KB” value in test [1] was determined as 23.55 ± 3.92 µM.
The same measure, in the same setting: next, `CN1CCC(C(=O)Nc2cccc(Nc3ncc(F)c(Nc4ccc(F)cc4)n3)c2)CC1` [Compound 9f]: 1.70 ± 0.80 µM.
`CN(C)CC(=O)Nc1cccc(Nc2ncc(F)c(Nc3ccc(F)cc3)n2)c1` [Compound 9g]: the “GI50 KB” value in test [1] worked out at 1.26 ± 0.05 µM.
Same read-out and setting: then `COCC(=O)Nc1cccc(Nc2ncc(F)c(Nc3ccc(F)cc3)n2)c1` [Compound 9h], with 6.25 ± 1.38 µM.
The same measure, in the same setting: next, `O=C(c1cccc(Nc2ncc(F)c(Nc3ccc(F)cc3)n2)c1)N1CCOCC1` [Compound 11a]: 14.58 ± 2.93 µM.
Still for that read-out and setting: next, `CN1CCN(C(=O)c2cccc(Nc3ncc(F)c(Nc4ccc(F)cc4)n3)c2)CC1` [Compound 11b]: 12.58 ± 3.05 µM; `O=C(c1cccc(Nc2ncc(F)c(Nc3ccc(F)cc3)n2)c1)N1CCCCC1` [Compound 11c]: 14.78 ± 2.53 µM; `CS(=O)(=O)N1CCN(C(=O)c2cccc(Nc3ncc(F)c(Nc4ccc(F)cc4)n3)c2)CC1` [Compound 11d]: 20.29 ± 4.09 µM.
On to `CC(=O)N1CCCN(C(=O)c2cccc(Nc3ncc(F)c(Nc4ccc(F)cc4)n3)c2)CC1` [Compound 11e], for which the “inhibition” value in test [3] was “Appreciable inhibition”. Further, the “GI50 KB” value in test [1] amounted to 14.88 ± 2.20 µM.
With `CN(C)CCNC(=O)c1cccc(Nc2ncc(F)c(Nc3ccc(F)cc3)n2)c1` [Compound 11f], the “inhibition” value in test [3] is given as “Appreciable inhibition”. In addition, the “GI50 KB” value in test [1] stood at 4.16 ± 0.69 µM.
Regarding `O=C(NCCO)c1cccc(Nc2ncc(F)c(Nc3ccc(F)cc3)n2)c1` [Compound 11g], in test [1], the “GI50 KB” value came out at 12.39 ± 2.48 µM.
For the compound `O=C(Nc1ccc(C(F)(F)F)cc1)c1cccc(Nc2ncc(F)c(Nc3ccc(F)cc3)n2)c1` [Compound 11h], the “GI50 KB” value in test [1] was > 10 µM.
Same read-out and setting: then `O=C(Nc1ccc(N2CCOCC2)cc1)c1cccc(Nc2ncc(F)c(Nc3ccc(F)cc3)n2)c1` [Compound 11i], with > 10 µM; and `COc1ccc(NC(=O)c2cccc(Nc3ncc(F)c(Nc4ccc(F)cc4)n3)c2)cc1` [Compound 11j], with > 10 µM; and `COc1cc(NC(=O)c2cccc(Nc3ncc(F)c(Nc4ccc(F)cc4)n3)c2)cc(OC)c1` [Compound 11k], with 15.47 ± 1.58 µM.
Same read-out and setting: then `O=C(Nc1ccc2c(c1)OCO2)c1cccc(Nc2ncc(F)c(Nc3ccc(F)cc3)n2)c1` [Compound 11l], with 14.08 ± 0.79 µM; and `O=C(Nc1cc(Cl)cc(Cl)c1)c1cccc(Nc2ncc(F)c(Nc3ccc(F)cc3)n2)c1` [Compound 11m], with 20.08 ± 1.06 µM.
Same read-out and setting: then `O=C(Nc1ccccn1)c1cccc(Nc2ncc(F)c(Nc3ccc(F)cc3)n2)c1` [Compound 11n], with 20.03 ± 10.96 µM.
As to `O=C(Nc1nccs1)c1cccc(Nc2ncc(F)c(Nc3ccc(F)cc3)n2)c1` [Compound 11o], the “GI50 KB” value in test [1] is > 10 µM.
Same read-out and setting: then `Cn1ccnc1NC(=O)c1cccc(Nc2ncc(F)c(Nc3ccc(F)cc3)n2)c1` [Compound 11p], with 14.57 ± 1.70 µM; and `CN1CC[C@H](c2c(O)cc(O)c3c(=O)cc(-c4ccccc4Cl)oc23)[C@H](O)C1` [FVP, flavopiridol, reference compound], with 0.16 ± 0.007 µM.
